The values that follow come from paper PMC9849758, “Chemically diverse activity-based probes with unexpected inhibitory mechanisms targeting trypsin-like serine proteases” (Frontiers in Chemistry, 2023).

Entries after “also recorded” stand apart in the source; their conditions may differ.

Format in all cases: biochemical
Test [1] addresses T1, β-tryptase (Homo sapiens, UniProt P20231). Briefly: Kinetic progress curves (kapp, K1, KI*, mechanism). More on the design: purchased EnzoLife Sciences. The following applies: for β-tryptase mechanism of inhibition: defined by the progress curves: slow-binding (Rev.) or irreversible (Irrev.); for Ki / β-tryptase kapp: mean ± SD; for β-tryptase kapp: apparent second-order rate constant from progress curves. The method, then:
(§1) Because the compounds described in this paper were previously described as irreversible inhibitors, the IC50 value is inversely correlated with the second-order rate constant of inactivation. For a simple pseudo-first-order inactivation process, the activity after incubation with inhibitor (vi) varies with the inhibitor concentration (i), as described in the following equation: vi=v0·e^−kit where v0 is the activity in the absence of an inhibitor, k is the second-order rate constant of inactivation, and t is the time. The inactivation rate constant was determined from the time course of inhibition.
(§2) Kinetic assays were performed in the following manner. The inhibitor was mixed with the substrate, and the buffer solution with the enzyme was added at the time zero. The progress curves show the release of pNA or AMC as a function of time. Initially, no inhibitor is bound to the enzyme, and the tangent to the progress curve (dA/dt) is proportional to the free enzyme concentration. The free enzyme concentration decreases over time due to inhibitor binding kinetics, as described above. Progress curves were recorded in pseudo-first-order conditions ([I]0>>[E]0) and with less than 10% conversion of the substrate during the entire time course. In these conditions, dA/dt decreases exponentially with time. The progress curves were fitted with the integrated rate equation with GraFit7 to yield a value for kobs, a pseudo-first-order rate constant. At=Ao+vs∙t+vi−vs∙1−e^−kobs∙t/kobs where At is the absorbance at time t, A0 is the absorbance at time zero, vi is the initial rate and vs is the velocity at the steady-state.
(§3) The apparent second-order rate constant (kapp) was calculated from the slope of the linear part of the plot of kobs vs. the inhibitor concentration ([I]0). In the case of competition between the inhibitor and the substrate, kapp is smaller than the “real” second-order rate constant k discussed above because a certain fraction of the enzyme is present as an enzyme-substrate complex. kapp depends on the substrate concentration used in the experiment, as described by [Lambeir et al. (1996)].
(§4) The apparent equilibrium constants were obtained from the following equations, vi/vo=1/1+I/K1; vS/vo=1/1+I/KI* where vi is the initial rate, vs is the steady-state velocity and vo is the uninhibited initial rate.

The target in test [2] is T1, β-tryptase. Briefly: Jump dilution, determination of inhibition type. More on the design: purchased EnzoLife Sciences. The following applies: inhibitor at 10 times IC50, 15 min, diluted 10-fold or 100-fold; Rev./Irrev. How it is done:
The dissociation of the enzyme-inhibitor complex was monitored by substrate hydrolysis over time ([Joossens et al., 2006]).
Because ABPs are designed to be irreversible serine protease inhibitors, the IC50 is exclusively used as a first discriminatory evaluation. When an inhibitor is irreversible, its IC50 value not only depends on the substrate and enzyme concentration but also on the time of incubation with the enzyme before the reaction is started by adding the substrate. […] The progress curve in the presence of an irreversible inhibitor will show final velocities equal to zero (Figure 6C). In contrast, for a reversible inhibitor, progress curves have a non-zero final steady-state velocity (Figure 6A) ([McWhirter, 2021]). To corroborate the inhibitory mechanism of the compounds, jump-dilution assays were performed. These use an inhibitor concentration of 10-fold the IC50 for the incubation, and a posteriori, the reaction mixture is diluted 10-fold or 100-fold before adding the substrate. In the case of an irreversible inhibitor, enzymatic activity is not regained (Figure 6D), whereas, in the case of a reversible compound, a slow release of the inhibitor and a gradual increase of the enzymatic activity rate is observed (Figure 6B) ([Copeland, 2013]; [McWhirter, 2021]). The jump-dilution assays confirmed the behavior described by the progress curves.
2.2.2 Jump dilution results
Supplementary Table 2. Jump dilution of selected alkyne and desthiobiotin probes against a panel of trypsin-like serine proteases. […]
# R R DtBa 3 tryptase Thrombin uPA CatG
32b H Alk Irrev. Irrev. Rev. Irrev. Rev.
45b DtB Irrev. Irrev. Rev. N.D. N.D.
33b Alk Irrev. Irrev. Rev. Irrev. Rev.
46b Cl DtB Irrev. Irrev. Rev. N.D. N.D.
34b H Alk Rev. Rev. Rev. Irrev. Rev.
50b DtB Rev. Rev. Rev. Irrev. Rev.
35b Alk Rev. Rev. Rev. Irrev. Rev.
52b NHCOMe DtB Rev. Rev. Rev. Irrev. Rev.
36b Alk Rev. Rev. Rev. Irrev. Rev.
54b Cl DtB Rev. Rev. Rev. Irrev. Rev.
37b Alk Irrev. Irrev. N.D. Irrev. Irrev.
55b H DtB Irrev. Irrev. N.D. Irrev. Irrev.
38b Alk Irrev. Irrev. N.D. Irrev. Irrev.
56b NHCOMe DtB Irrev. Irrev. N.D. Irrev. Irrev.
39b Alk Irrev. Irrev. N.D. Irrev. Rev.
57b Cl DtB Irrev. Irrev. N.D. Irrev. Rev.
41b H Alk Irrev. Irrev. Irrev. N.D. N.D.
31b Pro-Lys H Alk Irrev. Irrev. Irrev. Irrev. N.D. a Alk: ABP precursor bearing an alkyne; DtB: desthiobiotin probe b Panel of serine proteases abbreviations: urokinase plasminogen activator (uPA), cathepsin G (catG) N.D.: IC50 is greater than 10µM, and jump dilution was not performed
2.2.3 Progress curves and Jump dilution experiments
Kinetic assays were performed in the following manner. The inhibitor was mixed with the substrate, and the buffer solution with the enzyme was added at the time zero. The progress curves show the release of para-nitroaniline (pNA) or 7-amino-4-methyl coumarin (AMC) as a function of time.
To monitor the dissociation of the inhibitor-enzyme, aliquots of the enzyme were incubated at 37 °C without and with the inhibitor at a concentration 10 times higher than its IC 50. The enzyme […]
min, the aliquots were diluted 10-fold or 100-fold into the substrate concentration and assay buffer used for the IC50 determination. The dissociation of the enzyme-inhibitor complex was monitored by substrate hydrolysis over time. Blue lines represent the control where no inhibitor was present. Pink lines represent the assay with inhibitor.

A further test has as its target T2, CatG (Homo sapiens, UniProt P08311).
T2 sequence (P08311 21-255): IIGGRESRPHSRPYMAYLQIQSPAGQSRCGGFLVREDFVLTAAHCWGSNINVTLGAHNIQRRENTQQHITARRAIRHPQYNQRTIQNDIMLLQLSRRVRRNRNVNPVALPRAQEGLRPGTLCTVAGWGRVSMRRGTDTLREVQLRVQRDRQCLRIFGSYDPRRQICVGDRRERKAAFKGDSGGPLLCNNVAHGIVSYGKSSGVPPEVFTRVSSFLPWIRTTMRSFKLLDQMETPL
Briefly: Kinetic progress curves (kapp, mechanism). More on the design: Cathepsin G (cathepsin G human neutrophil, Sigma-Aldrich); purchased Sigma-Aldrich; host or cells: human neutrophil. The following applies: for CatG mechanism of inhibition: defined by the progress curves: slow-binding (Rev.) or irreversible (Irrev.); for CatG kapp: apparent second-order rate constant from progress curves, mean ± SD. The method, then:
as §1, §2, §3, §4

The mark [3] stands for this setting: β-tryptase K1, apparent equilibrium constant of the first step of slow-binding.
[4] abbreviates: β-tryptase KI*, apparent equilibrium constant of the overall process.

T1 sequence (P20231 31-275): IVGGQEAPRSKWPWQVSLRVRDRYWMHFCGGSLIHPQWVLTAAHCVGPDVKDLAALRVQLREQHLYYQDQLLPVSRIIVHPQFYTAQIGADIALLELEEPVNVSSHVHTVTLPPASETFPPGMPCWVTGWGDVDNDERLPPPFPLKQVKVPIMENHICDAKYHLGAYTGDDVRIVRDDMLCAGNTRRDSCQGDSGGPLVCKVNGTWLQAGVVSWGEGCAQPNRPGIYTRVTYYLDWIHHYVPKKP

With `C[C@@H]1NC(=O)N[C@@H]1CCCCCC(=O)NCCOCCOCCOCCn1cc(CCCOC(=O)NC(Cc2ccc(NC(=N)N)cc2)P(=O)(Oc2ccc(Cl)cc2)Oc2ccc(Cl)cc2)nn1` (stereo partly shown) [54b], the “β-tryptase mechanism of inhibition” value on β-tryptase [1] is reported as “reversible slow-binding mechanism; also recorded: * ^d Rev”. Also, the Ki on β-tryptase [1] (setting [3]) worked out at 0.13 ± 0.03 µM; on β-tryptase [1] (setting [4]) it was 0.02 ± 0.001 µM. Further, the “β-tryptase jump dilution result” value on β-tryptase [2] is listed as “Rev”. For the same molecule, the “CatG mechanism of inhibition” value at CatG is “* ^d Rev”.

In the case of `C#CCCCOC(=O)NC(Cc1ccc(NC(=N)N)cc1)P(=O)(Oc1ccccc1)Oc1ccccc1` (stereo not shown) [34b], on β-tryptase [1], the β-tryptase kapp turned out to be 712 ± 41 M⁻¹ s⁻¹. Further, on β-tryptase [1], the “β-tryptase mechanism of inhibition” value was “Rev”. The Ki worked out at 15.8 ± 5 µM at β-tryptase [1] (setting [3]) and 1.11 ± 0.09 µM on β-tryptase [1] (setting [4]). Besides, on β-tryptase [2], the “β-tryptase jump dilution result” value is on record as “Rev”. The “CatG mechanism of inhibition” value at CatG is reported as “* ^d Rev”.

With `C[C@@H]1NC(=O)N[C@@H]1CCCCCC(=O)NCCOCCOCCOCCn1cc(CCCOC(=O)NC(c2ccc(NC(=N)N)cc2)P(=O)(Oc2ccccc2)Oc2ccccc2)nn1` (stereo partly shown) [55b], at β-tryptase [1], the β-tryptase kapp worked out at 347 ± 19 M⁻¹ s⁻¹ and the “β-tryptase mechanism of inhibition” value is on record as “Irrev”. For the same molecule, the “β-tryptase jump dilution result” value on β-tryptase [2] is “Irrev”. For the same molecule, on CatG, the CatG kapp was found to be 301 ± 85 M⁻¹ s⁻¹ and the “CatG mechanism of inhibition” value is “Irrev”.

For the molecule `CC(=O)Nc1ccc(OP(=O)(Oc2ccc(NC(C)=O)cc2)C(NC(=O)OCCCc2cn(CCOCCOCCOCCNC(=O)CCCCC[C@H]3NC(=O)N[C@H]3C)nn2)c2ccc(NC(=N)N)cc2)cc1` (stereo partly shown) [56b], at β-tryptase [1], the β-tryptase kapp turned out to be 321 ± 2 M⁻¹ s⁻¹ and the “β-tryptase mechanism of inhibition” value was “Irreversible; also recorded: Irrev”. In addition, at β-tryptase [2], the “β-tryptase jump dilution result” value is listed as “Irrev; also recorded: Irreversible”. In addition, at CatG, the CatG kapp came out at 420 ± 37 M⁻¹ s⁻¹ and the “CatG mechanism of inhibition” value is given as “Irrev”.

For `C#CCCCOC(=O)NC(Cc1ccc(NC(=N)N)cc1)P(=O)(Oc1ccc(NC(C)=O)cc1)Oc1ccc(NC(C)=O)cc1` (stereo not shown) [35b], on β-tryptase [1], the β-tryptase kapp is given as 70 × 10^2 ± 582 M^−1 s^−1 and the “β-tryptase mechanism of inhibition” value was “Rev”. On β-tryptase [1] (setting [3]), the Ki was 3.2 ± 1.8 µM. The Ki at β-tryptase [1] (setting [4]) came to 0.12 ± 0.01 µM. The “β-tryptase jump dilution result” value at β-tryptase [2] was “Rev”. Further, on CatG, the CatG kapp was 477 ± 67 M⁻¹ s⁻¹ and the “CatG mechanism of inhibition” value is given as “Rev”.
